Source: ChEMBL document CHEMBL4028837, “Acetanilide and bromoacetyl-lysine derivatives as activators for human histone deacetylase 8” (Bioorg Med Chem Lett, 2017)

Assays:
[1] = target: T1, Histone deacetylase 8 (Homo sapiens) (UniProt Q9BY41); experiment: Activation of human HDAC8 deacetylation activity assessed as ratio of Kcat to Km for substrate at 50 uM using AMC-Fluor-de-Lys-HDAC8 as substrate measured after 1.5 mins by reverse phase HPLC method relative to control
T1 sequence (whole entry): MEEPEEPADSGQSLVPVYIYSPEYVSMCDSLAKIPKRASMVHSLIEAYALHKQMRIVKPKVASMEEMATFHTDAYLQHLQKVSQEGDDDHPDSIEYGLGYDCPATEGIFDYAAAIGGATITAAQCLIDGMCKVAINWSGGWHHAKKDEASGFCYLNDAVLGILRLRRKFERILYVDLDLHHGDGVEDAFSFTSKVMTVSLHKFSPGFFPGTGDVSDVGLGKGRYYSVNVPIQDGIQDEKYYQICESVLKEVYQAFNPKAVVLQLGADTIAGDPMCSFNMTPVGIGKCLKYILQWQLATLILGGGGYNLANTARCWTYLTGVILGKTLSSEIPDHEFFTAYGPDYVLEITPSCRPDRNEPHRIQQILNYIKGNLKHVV

[2] = target: T1, Histone deacetylase 8 (Homo sapiens); experiment: Activation of human HDAC8 deacetylation activity at 50 uM using AMC less CH3CONH-FG-(Nepsilon-acetyl-lysine)-FSW-CONH2 as substrate measured after 10 mins by reverse phase HPLC method relative to control
[3] = target: T1, Histone deacetylase 8 (Homo sapiens); experiment: Activation of human HDAC8 deacetylation activity at 50 uM using AMC-Fluor-de-Lys-HDAC8 as substrate measured after 10 mins by reverse phase HPLC method relative to control
[4] = target: T1, Histone deacetylase 8 (Homo sapiens); experiment: Activation of human HDAC8 deacetylation activity assessed as ratio of Kcat to Km for substrate at 50 uM using AMC less CH3CONH-FG-(Nepsilon-acetyl-lysine)-FSW-CONH2 as substrate measured after 1.5 mins by reverse phase HPLC method relative to control
[5] = organism: Homo sapiens; experiment: Activation of HDAC deacetylation activity in human HeLa nuclear extract at 50 uM using AMC-Fluor-de-Lys-HDAC8 as substrate measured after 5 mins by reverse phase HPLC method relative to control
[6] = organism: Homo sapiens; experiment: Activation of HDAC deacetylation activity in human HeLa nuclear extract at 50 uM using AMC less CH3CONH-RH-(Nepsilon-acetyl-lysine)-(Nepsilon-acetyl-lysine)-CONH2 as substrate measured after 10 mins by reverse phase HPLC method relative to control
[7] = target: T1, Histone deacetylase 8 (Homo sapiens); experiment: Activation of human HDAC8 deacetylation activity assessed as reduction in substrate Km at 50 uM using AMC-Fluor-de-Lys-HDAC8 as substrate measured after 1.5 mins by reverse phase HPLC method relative to control
[8] = target: T1, Histone deacetylase 8 (Homo sapiens); experiment: Activation of human HDAC8 deacetylation activity assessed as reduction in substrate Km at 50 uM using AMC less CH3CONH-FG-(Nepsilon-acetyl-lysine)-FSW-CONH2 as substrate measured after 1.5 mins by reverse phase HPLC method relative to control
[9] = target: T1, Histone deacetylase 8 (Homo sapiens); experiment: Activation of human HDAC8 deacetylation activity assessed as reduction in substrate Kcat at 50 uM using AMC-Fluor-de-Lys-HDAC8 as substrate measured after 1.5 mins by reverse phase HPLC method relative to control
[10] = target: T1, Histone deacetylase 8 (Homo sapiens); experiment: Activation of human HDAC8 deacetylation activity assessed as decrease in substrate Kcat at 50 uM using AMC less CH3CONH-FG-(Nepsilon-acetyl-lysine)-FSW-CONH2 as substrate measured after 1.5 mins by reverse phase HPLC method relative to control; set-up: scale not given: the % may be the effect or the level left

Compound: CC(C)(C)OC(=O)N[C@@H](CCCCNC(=O)CBr)C(=O)Nc1ccccc1
- fold change (FC) [1]: 3.7
- fold change (FC) [2]: 5.6
- fold change (FC) [3]: 2.8
- fold change (FC) [4]: 2.6
- fold change (FC) [5]: 1.09
- fold change (FC) [6]: 1.22
- fold change (FC) [7]: 3.5
- fold change (FC) [8]: 3.6
- fold change (FC) [9]: 13
- Activity [10]: < 40%

Compound: O=C(Nc1ccc(C(F)(F)F)cc1)C(F)(F)F
- fold change (FC) [2]: 1.4
- fold change (FC) [3]: 1.1
- fold change (FC) [5]: 0.93
- fold change (FC) [6]: 0.64

Compound: O=C(NC(=S)Nc1ccccc1)c1ccccc1
- fold change (FC) [2]: 0.5
- fold change (FC) [3]: 2.2
- fold change (FC) [5]: 0.69
- fold change (FC) [6]: 0.58

Compound: CC(=O)Nc1ccccc1C(F)(F)F
- fold change (FC) [2]: 1.5
- fold change (FC) [3]: 1.2
- fold change (FC) [5]: 0.98
- fold change (FC) [6]: 1.45

Compound: CC(=O)Nc1ccc(C(F)(F)F)cc1
- fold change (FC) [2]: 1.4
- fold change (FC) [3]: 1.7
- fold change (FC) [5]: 0.93
- fold change (FC) [6]: 0.83

Compound: O=C(Nc1ccccc1C(F)(F)F)C(F)(F)F
- fold change (FC) [2]: 1.2
- fold change (FC) [3]: 1.4
- fold change (FC) [5]: 0.87
- fold change (FC) [6]: 1.22

Compound: O=C(Nc1cccc(C(F)(F)F)c1)C(F)(F)F
- fold change (FC) [2]: 2.7
- fold change (FC) [3]: 1.7
- fold change (FC) [5]: 0.96
- fold change (FC) [6]: 0.54

Compound: CC(=O)Nc1cccc(C(F)(F)F)c1
- fold change (FC) [2]: 1.3
- fold change (FC) [3]: 1.7
- fold change (FC) [5]: 0.89
- fold change (FC) [6]: 0.81
